A short description of data set [1]: DRUGMATRIX: Glutamate, NMDA, Agonism radioligand binding (ligand: [3H] CGP-39653). The format is cell membranes, Rattus norvegicus, Wistar, Cerebral cortex, Membrane. To be noted: Not Active = under 50% inhibition at 10 µM.
The target in a further data set is Cytochrome P450 2C9 (Homo sapiens, UniProt P11712). Conditions: bti-tn-5b1-4. Also: in other assays of this panel Not Active means under 50% inhibition at 10 µM.
The next data set has as its target T1, Caspase-1 (Homo sapiens, UniProt P29466).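 Also: Caspase-1 enzyme inhibition assay with a peptide substrate; in other assays of this panel Not Active means under 50% inhibition at 10 µM.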
T1 sequence (P29466 whole entry): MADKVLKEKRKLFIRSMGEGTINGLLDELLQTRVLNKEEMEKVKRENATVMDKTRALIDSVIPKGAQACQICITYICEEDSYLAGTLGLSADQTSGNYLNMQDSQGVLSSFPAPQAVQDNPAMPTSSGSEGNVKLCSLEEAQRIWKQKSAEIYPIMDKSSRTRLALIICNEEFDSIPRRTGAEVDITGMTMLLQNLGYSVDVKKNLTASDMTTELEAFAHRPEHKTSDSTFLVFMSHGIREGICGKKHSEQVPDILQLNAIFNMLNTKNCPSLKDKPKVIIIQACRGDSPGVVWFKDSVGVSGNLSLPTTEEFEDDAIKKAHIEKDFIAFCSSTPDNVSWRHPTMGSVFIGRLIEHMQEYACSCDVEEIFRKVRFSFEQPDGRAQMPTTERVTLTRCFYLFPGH
More on the design: species or system Escherichia coli.

A short description of data set [2]: DRUGMATRIX: Phosphodiesterase PDE3 enzyme inhibition (substrate: [3H]cAMP + cAMP). In kind it is tissue-based, Homo sapiens. Conditions: platelet; Not Active = under 50% inhibition at 10 µM.
Data set [3] concerns the target T2, Alpha-1D adrenergic receptor (Homo sapiens, UniProt P25100). Also: in other assays of this panel Not Active means under 50% inhibition at 10 µM.
T2 sequence (P25100 whole entry): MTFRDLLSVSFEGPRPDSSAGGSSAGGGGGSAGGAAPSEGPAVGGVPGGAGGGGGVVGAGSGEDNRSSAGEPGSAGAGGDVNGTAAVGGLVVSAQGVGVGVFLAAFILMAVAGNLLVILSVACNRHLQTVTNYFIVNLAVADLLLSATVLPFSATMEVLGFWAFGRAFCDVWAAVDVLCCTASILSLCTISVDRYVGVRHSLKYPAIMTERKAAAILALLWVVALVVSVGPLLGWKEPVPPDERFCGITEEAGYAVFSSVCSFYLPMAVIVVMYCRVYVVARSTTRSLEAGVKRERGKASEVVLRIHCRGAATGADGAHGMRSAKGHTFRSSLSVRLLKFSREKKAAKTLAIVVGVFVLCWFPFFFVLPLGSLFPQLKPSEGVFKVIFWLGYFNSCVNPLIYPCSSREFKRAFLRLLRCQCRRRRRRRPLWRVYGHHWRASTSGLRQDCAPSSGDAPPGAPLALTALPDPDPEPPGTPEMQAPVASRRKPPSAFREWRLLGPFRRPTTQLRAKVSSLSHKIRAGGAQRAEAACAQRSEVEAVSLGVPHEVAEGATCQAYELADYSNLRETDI
In kind it is cell membranes, HEK293, Membrane.

Data set [4] can be described thus: DRUGMATRIX: Phorbol Ester radioligand binding (ligand: [3H] PDBu). To be noted: Not Active = under 50% inhibition at 10 µM. In kind it is cell membranes, Mus musculus, ICR, Brain, Membrane.
In data set [5] the target is T3, Nitric oxide synthase, inducible (Mus musculus, UniProt P29477).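 Also: inhibition of iNOS enzyme activity measured with L-arginine as substrate; in other assays of this panel Not Active means under 50% inhibition at 10 µM.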
T3 sequence (P29477 whole entry): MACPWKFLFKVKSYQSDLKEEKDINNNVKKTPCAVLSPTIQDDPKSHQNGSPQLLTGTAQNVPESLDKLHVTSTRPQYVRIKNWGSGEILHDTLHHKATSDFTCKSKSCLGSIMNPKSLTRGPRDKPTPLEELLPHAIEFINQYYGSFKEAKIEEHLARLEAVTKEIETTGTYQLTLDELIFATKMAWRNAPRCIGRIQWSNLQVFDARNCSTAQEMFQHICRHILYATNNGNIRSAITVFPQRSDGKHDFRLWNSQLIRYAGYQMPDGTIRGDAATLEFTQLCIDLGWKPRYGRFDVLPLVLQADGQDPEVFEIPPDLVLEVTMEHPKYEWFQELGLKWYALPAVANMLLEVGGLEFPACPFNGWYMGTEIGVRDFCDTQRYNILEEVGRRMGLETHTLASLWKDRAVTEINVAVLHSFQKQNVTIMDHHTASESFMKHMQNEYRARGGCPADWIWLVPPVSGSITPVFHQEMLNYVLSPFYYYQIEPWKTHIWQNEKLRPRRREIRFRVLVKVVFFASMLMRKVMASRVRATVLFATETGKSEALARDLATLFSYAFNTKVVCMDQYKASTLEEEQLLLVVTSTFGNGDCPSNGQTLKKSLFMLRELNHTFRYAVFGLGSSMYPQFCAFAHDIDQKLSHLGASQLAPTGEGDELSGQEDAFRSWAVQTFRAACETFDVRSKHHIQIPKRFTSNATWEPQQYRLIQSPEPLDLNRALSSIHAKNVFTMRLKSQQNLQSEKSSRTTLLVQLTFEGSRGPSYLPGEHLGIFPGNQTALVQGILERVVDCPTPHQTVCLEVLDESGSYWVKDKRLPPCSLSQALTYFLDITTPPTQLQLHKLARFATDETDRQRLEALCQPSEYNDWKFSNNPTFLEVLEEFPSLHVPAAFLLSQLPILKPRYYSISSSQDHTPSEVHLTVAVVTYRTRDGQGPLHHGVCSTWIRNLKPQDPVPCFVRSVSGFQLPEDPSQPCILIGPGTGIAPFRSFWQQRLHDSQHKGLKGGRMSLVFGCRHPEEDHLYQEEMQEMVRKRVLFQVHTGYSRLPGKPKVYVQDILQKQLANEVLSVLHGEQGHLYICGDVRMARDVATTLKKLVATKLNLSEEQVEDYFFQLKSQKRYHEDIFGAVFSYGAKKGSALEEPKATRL
Set-up: species or system Escherichia coli.

Data set [6] addresses T4, Type-2 angiotensin II receptor (Homo sapiens, UniProt P50052).
T4 sequence (P50052 whole entry): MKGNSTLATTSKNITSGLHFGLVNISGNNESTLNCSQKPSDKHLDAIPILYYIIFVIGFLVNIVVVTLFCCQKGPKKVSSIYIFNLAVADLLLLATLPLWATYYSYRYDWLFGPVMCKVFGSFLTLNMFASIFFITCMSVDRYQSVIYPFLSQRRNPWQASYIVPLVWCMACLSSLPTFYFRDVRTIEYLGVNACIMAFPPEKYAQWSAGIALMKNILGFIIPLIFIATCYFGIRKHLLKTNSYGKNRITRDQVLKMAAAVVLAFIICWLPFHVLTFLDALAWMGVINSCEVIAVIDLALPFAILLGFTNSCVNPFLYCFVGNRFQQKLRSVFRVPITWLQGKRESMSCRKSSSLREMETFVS
In kind it is cell-based. To be noted: cho-k1.

The target of data set [7] is Kappa-type opioid receptor (Homo sapiens, UniProt P41145). The data set can be described thus: DRUGMATRIX: Opiate kappa (OP2, KOP) radioligand binding (ligand: [3H] Diprenorphine). The format is cell membranes, HEK293, Membrane. To be noted: hek293; Not Active = under 50% inhibition at 10 µM.
Chain of Kappa-type opioid receptor (P41145 whole entry): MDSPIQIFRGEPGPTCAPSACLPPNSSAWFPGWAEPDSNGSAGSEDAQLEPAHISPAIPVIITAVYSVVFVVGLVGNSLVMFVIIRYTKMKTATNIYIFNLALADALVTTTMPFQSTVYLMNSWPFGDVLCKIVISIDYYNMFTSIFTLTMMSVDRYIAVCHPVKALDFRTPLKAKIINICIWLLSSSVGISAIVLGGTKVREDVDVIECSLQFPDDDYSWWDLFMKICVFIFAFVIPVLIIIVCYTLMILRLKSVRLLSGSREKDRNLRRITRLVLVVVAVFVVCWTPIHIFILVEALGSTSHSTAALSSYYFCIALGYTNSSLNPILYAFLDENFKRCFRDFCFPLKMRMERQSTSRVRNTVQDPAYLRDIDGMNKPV

Each structure is given as a SMILES string.

Chain of Cytochrome P450 2C9 (P11712 whole entry): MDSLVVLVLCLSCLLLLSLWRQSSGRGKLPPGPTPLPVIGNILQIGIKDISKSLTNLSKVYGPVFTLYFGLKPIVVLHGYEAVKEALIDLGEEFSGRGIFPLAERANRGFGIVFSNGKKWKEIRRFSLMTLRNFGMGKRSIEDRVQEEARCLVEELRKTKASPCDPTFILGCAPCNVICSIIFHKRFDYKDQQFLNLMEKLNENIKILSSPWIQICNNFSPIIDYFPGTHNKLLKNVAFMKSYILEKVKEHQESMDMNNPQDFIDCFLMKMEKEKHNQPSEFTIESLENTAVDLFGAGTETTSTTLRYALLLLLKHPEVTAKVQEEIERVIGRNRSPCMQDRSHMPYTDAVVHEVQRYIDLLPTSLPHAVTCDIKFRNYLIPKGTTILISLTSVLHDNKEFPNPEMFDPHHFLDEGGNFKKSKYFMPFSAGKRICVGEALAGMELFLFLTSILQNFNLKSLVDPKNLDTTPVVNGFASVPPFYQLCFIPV

As to `CNCCCN1c2ccccc2CCc2ccccc21` [DESIPRAMINE], the IC50 entry (in [1]; on Cytochrome P450 2C9; on Caspase-1; in data set [2]; in data set [3] (hek293); in data set [4]) was “Not Active” in each case. Also, the IC50 result in data set [5], in data set [6] and in data set [7] was “Not Active” in each case. Besides, the inhibition constant (Ki) entry (in [1]; at Cytochrome P450 2C9; in data set [2]; in [4]) was “Not Active” each time.

`COc1cc2c3cc1Oc1cc(ccc1O)C[C@@H]1c4c(cc(OC)c(O)c4Oc4ccc(cc4)C[C@@H]3N(C)CC2)CC[N+]1(C)C.[Cl-]`: the IC50 result (in data set [1]; against Cytochrome P450 2C9; on Caspase-1; in [2]; in data set [3] (hek293); in [4]) was “Not Active” throughout. Further, the IC50 entry in [5], in [6] and in data set [7] was “Not Active” each time. Moreover, the inhibition constant (Ki) entry (in data set [1]; at Cytochrome P450 2C9; in [2]; in data set [4]) was “Not Active” each time.

Take `CN(Cc1ccc(C(C)(C)C)cc1)Cc1cccc2ccccc12` [BUTENAFINE]: the IC50 entry (in [1]; against Cytochrome P450 2C9; against Caspase-1; in [2]; in data set [3] (hek293); in data set [4]) was “Not Active” in each case. Also, the IC50 result in data set [5], in [6] and in data set [7] was “Not Active” each time. The Ki entry (in data set [1]; at Cytochrome P450 2C9; in data set [2]; in data set [4]) was “Not Active” in each case.

On to `C[C@H](CCC(=O)O)[C@H]1CC[C@H]2[C@@H]3[C@H](O)C[C@@H]4C[C@H](O)CC[C@]4(C)[C@H]3C[C@H](O)[C@]12C` [CHOLIC ACID], for which the IC50 entry (in data set [1]; against Cytochrome P450 2C9; against Caspase-1; in data set [2]; in data set [3] (hek293); in data set [4]) was “Not Active” each time. In addition, the IC50 entry in [5], in [6] and in [7] was “Not Active” in each case. In addition, the Ki entry (in [1]; at Cytochrome P450 2C9; in data set [2]; in data set [4]) was “Not Active” each time.

On to `O=C(CCCN1CC=C(n2c(=O)[nH]c3ccccc32)CC1)c1ccc(F)cc1` [DROPERIDOL], for which the IC50 result in data set [1] was “Not Active”; against Cytochrome P450 2C9, “Not Active”; at Caspase-1, “Not Active”; in [2], “Not Active”; in data set [3] (read-out: IC50), 83 nM; in [4] it was “Not Active”. For the same compound, the IC50 entry in data set [5], in [6] and in [7] was “Not Active” each time. Also, the inhibition constant Ki result was “Not Active” in [1]; “Not Active” at Cytochrome P450 2C9; “Not Active” in [2]; 41 nM in data set [3] (read-out: Ki); “Not Active” in data set [4].

With `Cc1cc(C2CCCCC2)n(O)c(=O)c1` [CICLOPIROX], the IC50 entry (in data set [1]; at Cytochrome P450 2C9; on Caspase-1; in data set [2]; in [3] (hek293); in [4]) was “Not Active” in each case. The IC50 entry in data set [5], in data set [6] and in data set [7] was “Not Active” in each case. Besides, the Ki entry (in data set [1]; on Cytochrome P450 2C9; in data set [2]; in [4]) was “Not Active” throughout.

On to `CCCCN1CCCC[C@H]1C(=O)Nc1c(C)cccc1C` [LEVOBUPIVACAINE], for which the IC50 result (in [1]; on Cytochrome P450 2C9; against Caspase-1; in data set [2]; in [3] (hek293); in [4]) was “Not Active” throughout. Moreover, the IC50 entry in [5], in [6] and in [7] was “Not Active” each time. The Ki entry (in data set [1]; at Cytochrome P450 2C9; in data set [2]; in data set [4]) was “Not Active” throughout.

For the compound `CC[C@@]1(O)C[C@H](O[C@H]2C[C@H](N(C)C)[C@H](O[C@H]3C[C@H](O)[C@H](O[C@H]4CCC(=O)[C@H](C)O4)[C@H](C)O3)[C@H](C)O2)c2c(cc3c(c2O)C(=O)c2c(O)cccc2C3=O)[C@H]1C(=O)OC` [ACLARUBICIN], the IC50 result (in data set [1]; at Cytochrome P450 2C9; against Caspase-1; in data set [2]; in [3] (hek293); in data set [4]) was “Not Active” throughout. The IC50 result in [5], in data set [6] and in [7] was “Not Active” each time. The Ki entry (in data set [1]; on Cytochrome P450 2C9; in data set [2]; in data set [4]) was “Not Active” each time.

For `CC(=O)O[C@@]12CO[C@@H]1C[C@H](O)[C@@]1(C)C(=O)[C@H](O)C3=C(C)[C@@H](OC(=O)[C@H](O)[C@@H](NC(=O)OC(C)(C)C)c4ccccc4)C[C@@](O)([C@@H](OC(=O)c4ccccc4)[C@H]21)C3(C)C.O.O.O` [DOCETAXEL], the IC50 entry (in data set [1]; at Cytochrome P450 2C9; on Caspase-1; in data set [2]; in [3] (hek293); in [4]) was “Not Active” each time. For the same compound, the half-maximal inhibitory concentration (IC50) entry in data set [5], in data set [6] and in data set [7] was “Not Active” each time. For the same compound, the Ki entry (in data set [1]; on Cytochrome P450 2C9; in data set [2]; in data set [4]) was “Not Active” throughout.

One may read the IC50 as the concentration that gives 50% inhibition. One may read the Ki as a measure of affinity in units of concentration, obtained from inhibition or displacement.

The values are drawn from ChEMBL document CHEMBL1909046, “DrugMatrix in vitro pharmacology data”.
